According to paper PMC11844072, “Novel 5,6-dichlorobenzimidazole derivatives as dual BRAFWT and BRAFV600E inhibitors: design, synthesis, anti-cancer activity and molecular dynamics simulations” (BMC Chemistry, 2025):

Columns and labels:
c-KIT = tested on: c-KIT; set-up: method as in PMID 35636123; conditions: cited from earlier work
FLT-3 = tested on: FLT-3; set-up: method as in PMID 35636123; conditions: cited from earlier work
BRAFV600E = BRAFV600E (Homo sapiens, UniProt P15056, V600E); set-up: purchased BPS Biosciences 48688; conditions: cited from earlier work
BRAFWT = biological target: T1, BRAFWT (Homo sapiens, UniProt P15056); conditions: cited from earlier work
T1 construct: purchased BPS Biosciences 78316

PDGFR-β = tested on: PDGFR-β; set-up: method as in PMID 35636123; conditions: cited from earlier work
FGFR-1 = FGFR-1 (Homo sapiens, UniProt P11362); set-up: purchased; conditions: cited from earlier work
VEGFR-2 = VEGFR-2 (Homo sapiens, UniProt P35968); set-up: purchased; conditions: cited from earlier work
HSF cell line = assay: Cytotoxicity on HSF normal cell line (SRB assay); format: cell-based; conditions: HSF normal human skin fibroblast; mean of three ± SD
Protocol: The dichlorobenzimidazole derivative 10h was tested in Nawah scientific—Cairo—Egypt for its cytotoxic activity on HSF cell line as stated in the Additional file A [53, 54].
6. Analysis of 10h on HSF normal cell line
Human Skin Fibroblast (HSF) was obtained from Nawah Scientific Inc., (Mokatam, Cairo, Egypt). Cells were maintained in DMEM media supplemented with […] of streptomycin, 100 units/mL of penicillin and 10% of heat-inactivated fetal bovine serum in humidified, 5% (v/v) CO2atmosphere at 37 °C. Cell viability was assessed by SRB assay. Aliquots of 100 μL cell suspension (5x10^3 cells) were in 96-well plates and incubated in complete media for 24 h. Cells were treated with another aliquot of 100 μL media containing drugs at various concentrations.
After drug exposure, cells were fixed by replacing media with 150 μL of 10% TCA and incubated at 4 °C for 1 h. The TCA solution was removed, and the cells were washed 5 times with distilled water. Aliquots of 70 μL SRB solution (0.4% w/v) were added and incubated in a dark place at room temperature for 10 min. Plates were washed 3 times with 1% acetic acid and allowed to air-dry overnight. Then, 150 μL of TRIS (10 mM) was added to dissolve protein-bound SRB stain; the absorbance was measured at 540 nm using an Infinite F50 microplate reader (TECAN, Switzerland).
6.2. Dose response curve of 10h on HSF normal cell line
Figure 66. […]

HepG2 cell line = tested on: HepG2 cell line; set-up: method as in PMID 28505536, PMID 32053964; conditions: antiproliferative activity; cited from earlier work

T1 sequence (P15056 whole entry): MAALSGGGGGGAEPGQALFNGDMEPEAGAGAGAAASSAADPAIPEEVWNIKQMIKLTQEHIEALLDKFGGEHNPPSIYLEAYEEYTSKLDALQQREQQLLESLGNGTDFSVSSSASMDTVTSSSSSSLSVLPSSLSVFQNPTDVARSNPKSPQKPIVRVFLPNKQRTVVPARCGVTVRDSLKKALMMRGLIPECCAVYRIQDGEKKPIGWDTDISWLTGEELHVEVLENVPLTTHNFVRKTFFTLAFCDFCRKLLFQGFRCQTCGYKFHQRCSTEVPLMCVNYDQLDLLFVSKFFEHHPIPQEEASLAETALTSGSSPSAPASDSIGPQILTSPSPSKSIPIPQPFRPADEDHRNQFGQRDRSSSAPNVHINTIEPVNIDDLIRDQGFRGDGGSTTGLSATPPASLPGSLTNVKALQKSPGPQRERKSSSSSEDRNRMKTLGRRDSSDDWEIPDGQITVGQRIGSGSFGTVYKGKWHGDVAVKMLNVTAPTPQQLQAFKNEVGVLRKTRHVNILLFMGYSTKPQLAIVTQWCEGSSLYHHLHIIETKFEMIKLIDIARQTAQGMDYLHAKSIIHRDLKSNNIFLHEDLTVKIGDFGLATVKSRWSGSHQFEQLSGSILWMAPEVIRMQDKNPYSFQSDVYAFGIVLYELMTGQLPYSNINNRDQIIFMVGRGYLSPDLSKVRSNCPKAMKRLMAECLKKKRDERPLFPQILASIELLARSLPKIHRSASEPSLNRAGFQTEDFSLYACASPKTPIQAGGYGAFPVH
BRAFV600E, sequence (P15056 whole entry V600E): as the sequence (P15056 whole entry) above, with V600E counted along it
FGFR-1, sequence (P11362 22-822): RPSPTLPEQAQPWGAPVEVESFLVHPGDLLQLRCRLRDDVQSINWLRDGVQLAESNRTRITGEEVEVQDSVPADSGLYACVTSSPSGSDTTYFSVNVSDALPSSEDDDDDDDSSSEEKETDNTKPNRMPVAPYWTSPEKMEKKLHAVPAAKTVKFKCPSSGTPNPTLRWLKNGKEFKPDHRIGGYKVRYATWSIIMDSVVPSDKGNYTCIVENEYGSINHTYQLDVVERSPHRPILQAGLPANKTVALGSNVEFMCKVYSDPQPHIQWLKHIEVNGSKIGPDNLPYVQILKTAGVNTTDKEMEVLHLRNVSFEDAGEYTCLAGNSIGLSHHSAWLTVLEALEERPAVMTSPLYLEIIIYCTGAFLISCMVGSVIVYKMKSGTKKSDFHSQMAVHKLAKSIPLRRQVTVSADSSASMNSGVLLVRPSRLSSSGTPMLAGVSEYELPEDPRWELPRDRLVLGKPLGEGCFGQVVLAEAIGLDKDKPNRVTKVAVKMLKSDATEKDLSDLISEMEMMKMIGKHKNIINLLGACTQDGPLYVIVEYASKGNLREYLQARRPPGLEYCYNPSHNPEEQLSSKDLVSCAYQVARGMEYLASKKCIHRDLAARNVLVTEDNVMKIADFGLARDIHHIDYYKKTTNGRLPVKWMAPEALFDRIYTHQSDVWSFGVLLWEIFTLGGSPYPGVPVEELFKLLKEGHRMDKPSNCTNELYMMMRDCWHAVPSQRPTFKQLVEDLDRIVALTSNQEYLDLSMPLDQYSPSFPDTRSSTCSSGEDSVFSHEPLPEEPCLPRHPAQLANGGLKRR
VEGFR-2, sequence (P35968 20-1356): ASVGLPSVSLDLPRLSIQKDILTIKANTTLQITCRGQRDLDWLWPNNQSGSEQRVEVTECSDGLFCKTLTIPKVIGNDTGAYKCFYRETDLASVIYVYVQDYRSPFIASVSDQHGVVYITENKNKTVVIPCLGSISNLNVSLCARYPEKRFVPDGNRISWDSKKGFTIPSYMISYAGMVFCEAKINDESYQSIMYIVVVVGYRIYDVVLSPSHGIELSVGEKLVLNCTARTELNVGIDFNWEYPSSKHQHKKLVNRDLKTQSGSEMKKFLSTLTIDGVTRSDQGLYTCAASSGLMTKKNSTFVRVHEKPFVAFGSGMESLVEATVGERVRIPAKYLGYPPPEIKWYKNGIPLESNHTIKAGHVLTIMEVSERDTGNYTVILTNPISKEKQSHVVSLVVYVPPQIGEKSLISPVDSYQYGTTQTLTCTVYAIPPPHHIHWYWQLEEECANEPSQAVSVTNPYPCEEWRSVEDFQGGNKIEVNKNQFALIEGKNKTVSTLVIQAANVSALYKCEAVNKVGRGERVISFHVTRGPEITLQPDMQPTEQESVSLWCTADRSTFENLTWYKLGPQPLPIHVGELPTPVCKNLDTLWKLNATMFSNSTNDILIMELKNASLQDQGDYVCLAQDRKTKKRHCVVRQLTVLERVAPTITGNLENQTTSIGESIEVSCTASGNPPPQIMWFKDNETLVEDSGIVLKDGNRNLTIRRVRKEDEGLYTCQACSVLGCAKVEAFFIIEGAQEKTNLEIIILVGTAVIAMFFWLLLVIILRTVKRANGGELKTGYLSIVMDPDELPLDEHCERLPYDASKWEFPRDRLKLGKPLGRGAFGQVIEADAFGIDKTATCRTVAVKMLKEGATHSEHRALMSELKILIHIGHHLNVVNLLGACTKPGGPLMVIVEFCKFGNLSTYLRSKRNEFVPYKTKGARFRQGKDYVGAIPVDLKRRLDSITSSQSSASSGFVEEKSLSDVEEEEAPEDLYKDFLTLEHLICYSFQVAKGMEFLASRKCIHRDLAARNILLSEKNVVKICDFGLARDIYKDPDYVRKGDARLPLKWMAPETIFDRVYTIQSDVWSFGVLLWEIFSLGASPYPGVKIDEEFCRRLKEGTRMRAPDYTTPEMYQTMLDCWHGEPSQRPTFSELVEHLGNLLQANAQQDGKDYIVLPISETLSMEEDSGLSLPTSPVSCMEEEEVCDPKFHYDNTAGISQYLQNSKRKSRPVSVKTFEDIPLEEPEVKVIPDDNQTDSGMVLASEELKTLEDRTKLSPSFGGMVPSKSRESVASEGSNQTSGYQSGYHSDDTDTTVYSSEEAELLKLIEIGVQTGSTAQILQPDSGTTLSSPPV

## Cc1ccc(-n2c(SCC(=O)Nc3ccc(-c4nc5ccccc5[nH]4)cc3)nc3ccccc3c2=O)cc1 [III]
c-KIT
  IC50: 120 nM
FLT-3
  IC50: 130 nM
BRAFV600E
  IC50: 2470 nM
BRAFWT
  IC50: 6740 nM
PDGFR-β
  IC50: 30 nM

## O=C1Nc2ccc(Br)cc2/C1=N\NC(=O)c1ccc2[nH]c(-c3ccccc3)nc2c1 [IV]
FGFR-1
  IC50: 1650 nM
BRAFV600E
  IC50: 1520 nM
VEGFR-2
  IC50: 180 nM
BRAFWT
  IC50: 20 nM

## CNC(=O)c1cc(Oc2ccc(NC(=O)Nc3ccc(Cl)c(C(F)(F)F)c3)cc2)ccn1 [Sorafenib, reference compound]
HSF cell line
  IC50: 2250 ± 140 nM

## CC(C)c1nc2ccccc2n1CC(=O)N/N=C/c1cccc(OCc2ccccc2)c1 [V]
HepG2 cell line
  IC50: 1980 nM
